According to patent US9840465B2 (priority 2013, dated 2017):
Counter-ions that a name gives are not always drawn. Like-named read-outs stand apart in the source and are kept apart here.

Legend:
[1] = tested on: A2/Taiwan/1/64 (H2N2), M2 WT; assay: microbe, parasite or virus in culture; type: cell-based; conditions: read-out: EC50 A2/Taiwan/1/64 (H2N2)
[2] = tested on: A/Victoria/3/75 (H3N2), M2 WT; assay: microbe, parasite or virus in culture; type: cell-based; conditions: read-out: EC50 A/Victoria/3/75 (H3N2)
[3] = tested on: MDCK cells

For `NC12CC3CC(CC(C3)C1)C2` [Amantadine (1), Amantadine, reference compound], the EC50 ([1]; Influenza A virus, H2N2, MDCK) was 340 nM and the EC50 ([2]; Influenza A virus, H3N2, MDCK) was 2800 nM.

With `NC1(c2ccccc2)C2CC3CC(C2)CC1C3` (stereo not drawn) [Compound 19, (1r,3r,5r,7r)-2-phenyladamantan-2-amine] the EC50 [1] was 200 nM and the EC50 [2] was 8000 nM.

For `CCCCC1(N)C2CC3CC(C2)CC1C3` (stereo not drawn) [Compound 17, (1r,3r,5r,7r)-2-butyladamantan-2-amine], the EC50 [1] was 1500 nM and the EC50 [2] was 4000 nM.

`CC(C)(N)C12CC3CC(CC(C3)C1)C2` [Compound 259, 2-(adamantan-1-yl)propan-2-amine] gave an EC50 ([1]; Influenza A virus, H2N2, MDCK) of 1100 nM and an EC50 ([2]; Influenza A virus, H3N2, MDCK) of 3400 nM.

For `CC(C)CC1(N)C2CC3CC(C2)CC1C3` (stereo not drawn) [Compound 18, (1r,3r,5r,7r)-2-isobutyladamantan-2-amine], the EC50 [1] was 400 nM and the EC50 [2] was 13000 nM.

With `NC1(Cc2ccccc2)C2CC3CC(C2)CC1C3` (stereo not drawn) [Compound 20, (1r,3r,5r,7r)-2-benzyladamantan-2-amine] the EC50 [1] was 200 nM and the EC50 [2] was 18000 nM.

For `CCC1CCC2(N1)C1CC3CC(C1)CC2C3` (stereo not drawn) (as salt: fumarate) [Compound 347, 5-ethylspiro[pyrrolidine-2,2′-tricyclo[3.3.1.1^3,7]decane]], the melting point was 191 to 193 °C (dec.).

With `CCCCCCC1(N)C2CC3CC(C2)CC1C3` (stereo not drawn) (as salt: fumarate) [Compound 101, 2-n-hexyl-tricyclo[3.3.1.1^3,7]decan-2-amine] the melting point was 225 °C.

Molecule `CC(N)C12CC3CC(CC(C3)C1)C2` (stereo not drawn) [Rimantadine (2), Rimantadine, reference compound] has an EC50 ([1]; Influenza A virus, H2N2, MDCK) of 1600 nM and an EC50 ([2]; Influenza A virus, H3N2, MDCK) of 530 nM.

With `CCCC1(N)C2CC3CC(C2)CC1C3` (stereo not drawn) [Compound 7] the EC50 ([1]; Influenza A virus, H2N2, MDCK) was < 240 nM and the EC50 ([2]; Influenza A virus, H3N2, MDCK) was 23000 nM.

In the case of `CCCCCCC1(N)C2CC3CC(C2)CC1C3` (stereo not drawn) [Compound 101, 2-n-hexyl-tricyclo[3.3.1.1^3,7]decan-2-amine], the EC50 ([1]; Influenza A virus, H2N2, MDCK) is reported as 1500 nM, the EC50 ([2]; Influenza A virus, H3N2, MDCK) is reported as 1100 nM and the “microscopic evidence of cytotoxicity to MDCK cells” value [3] is reported as “No microscopic evidence of cytotoxicity”.
